# Measured values as given in PubChem BioAssay AID1552 (Sanford-Burnham Center for Chemical Genomics, 2009).
# Calls of active or inactive are those of the source. No rule for the calls is given here.
# Target: Ubiquitin-conjugating enzyme E2 N (Homo sapiens) (UniProt P61088)
# Assay: UBE2N binders by NMR, biophysical, purified protein (AID 1552)
# Conditions: NMR binding to purified UBE2N
# Sequence of Ubiquitin-conjugating enzyme E2 N (Homo sapiens) (P61088 whole entry, looked up): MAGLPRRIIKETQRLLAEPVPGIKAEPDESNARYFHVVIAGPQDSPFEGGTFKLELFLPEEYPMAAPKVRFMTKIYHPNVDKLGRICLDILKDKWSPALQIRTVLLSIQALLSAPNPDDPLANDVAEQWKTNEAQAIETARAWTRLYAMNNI
row,Structure (SMILES),Kd
1,COc1cc(S(=O)(=O)Nc2cccnc2)ccc1F,> 4 mM (inactive)
2,c1ccc(C[N+]23CCN(CC2)CC3)cc1,> 4 mM (inactive)
3,Cn1cnnc1SCC(=O)Nc1ccccc1,> 4 mM (inactive)
4,O=C(NCc1ccc2c(c1)OCO2)c1cccs1,> 4 mM (inactive)
5,CCN1CC2(C)CC[C@H](OC)[C@]34C2[C@H](O)C2(OCO[C@@]25C[C@H](OC)[C@H]2C[C@]3(O)C5[C@H]2O)C14,> 4 mM (inactive)
6,CCCn1cnn2c(=O)cc(C)nc12,> 4 mM (inactive)
7,O=C1Cc2ccccc2N1c1ccccc1,> 4 mM (inactive)
8,Nc1nc2ncc(CNc3ccc(C(=O)N[C@@H](CCC(=O)O)C(=O)O)cc3)nc2c(=O)[nH]1,> 4 mM (inactive)
9,O=C(Nc1ccncc1)Nc1ccc(F)cc1F,> 4 mM (inactive)
10,COc1cccc(NC(=O)c2nc3ncccn3n2)c1,> 4 mM (inactive)
11,Nc1ccc(NS(=O)(=O)c2ccc(N)cc2)cc1,> 4 mM (inactive)
12,COc1cc2c(cc1OC)-c1cc3ccc(OC)c(OC)c3c[n+]1CC2,> 4 mM (inactive)
13,NC(=O)C1CCN(C(=S)Nc2ccccc2)CC1,> 4 mM (inactive)
14,NCc1csc(-c2cccs2)n1,> 4 mM (inactive)
15,CCC[C@H]1CC2=C(C[C@@H](CC)CC3=C1C(=O)OC3=O)C(=O)OC2=O,> 4 mM (inactive)
16,Nc1nnc(SCc2ccccc2Cl)s1,> 4 mM (inactive)
17,NC(=O)C1CCN(C(=O)c2ccco2)CC1,> 4 mM (inactive)
18,O=C(O)c1ccc2sccc2c1,> 4 mM (inactive)
19,NCc1cccc2c1OCCO2,> 4 mM (inactive)
20,COc1ccc(S(=O)(=O)N2CCOCC2)cc1C(C)C,> 4 mM (inactive)
21,CC1CC[C@@]2(OC1)O[C@H]1CC3C4CC[C@@H]5C[C@@H](O)CC[C@]5(C)C4CC[C@]3(C)[C@H]1[C@@H]2C (some centres not stated),> 4 mM (inactive)
22,CC1CN(C2=NCCN2)CC(C)O1 (configuration not stated),> 4 mM (inactive)
23,OC12CC3CC(CC(C3)C1)C2,> 4 mM (inactive)
24,Oc1ccc2c(c1)OCC1(O)Cc3cc(O)c(O)cc3C21 (configuration not stated),> 4 mM (inactive)

row,Structure (SMILES),Kd
1,Nc1ccc2[nH]ccc2c1,> 4 mM (inactive)
2,CCOC(=O)Cn1cnc2c1c(=O)[nH]c(=O)n2C,> 4 mM (inactive)
3,CCNC(CC(=O)Nc1ccc(O)cc1)C(=O)O (configuration not stated),> 4 mM (inactive)
4,Clc1ccc(-c2noc(CN3CCCC3)n2)cc1,> 4 mM (inactive)
5,O=C(O)CCC1=C2c3ccccc3CCN2C(=O)CC1,> 4 mM (inactive)
6,COc1cc2c(cc1OC)[C@@H]1C(=O)c3ccc(O)c(CC=C(C)C)c3O[C@@H]1CO2,> 4 mM (inactive)
7,CC(=O)c1cccc(NC(=O)N2CCc3ccccc3C2)c1,> 4 mM (inactive)
8,Cc1nn2c(=O)/c(=C/c3cccc(F)c3)sc2nc1=O,> 4 mM (inactive)
9,O/N=C1/CCCc2nonc21,> 4 mM (inactive)
10,CCOC(=O)N1CCCC1c1cccnc1 (configuration not stated),> 4 mM (inactive)
11,Nc1cccnc1Oc1ccc(F)cc1F,> 4 mM (inactive)
12,Cc1ccc(/C=N/NC(N)=O)o1,> 4 mM (inactive)
13,CN(C)/C=N/S(=O)(=O)c1ccccc1,> 4 mM (inactive)
14,CCn1nccc1C(=O)Nc1ccc(Cl)cc1Cl,> 4 mM (inactive)
15,COc1cc(C(C)=O)ccc1OCC(O)Cn1ccnc1 (configuration not stated),> 4 mM (inactive)
16,Nc1ccc2c(c1)S(=O)(=O)C=C2,> 4 mM (inactive)
17,CC1(C)CCC(C)(C)c2cc(C(=O)O)ccc21,> 4 mM (inactive)
18,CSc1nc(C)cc(Oc2ccc(=O)n(C)n2)n1,> 4 mM (inactive)
19,CC(=O)c1cc(CN2C(=O)c3ccccc3C2=O)cs1,> 4 mM (inactive)
20,Nc1ccc(S(=O)(=O)Nc2ccc(F)cc2F)cc1,> 4 mM (inactive)
21,CCc1ccccc1NC(=O)c1cnccn1,> 4 mM (inactive)
22,O=C(Cc1c(F)cccc1Cl)Nc1ccon1,> 4 mM (inactive)
23,COc1ccc(C(=O)NNC(=S)NC(C)=O)cc1,> 4 mM (inactive)
24,CC(=O)c1cccc(NC(=O)NN2CCOCC2)c1,> 4 mM (inactive)

row,Structure (SMILES),Kd
1,CSc1nc(NC(C)C)nc(N2CCOCC2)n1,> 4 mM (inactive)
2,CCOC(=O)c1[nH]cnc1C(=O)OC(C)C,> 4 mM (inactive)
3,O=C(Nc1cccc(Cl)c1)c1cnn2cccnc12,> 4 mM (inactive)
4,COc1ccc(-c2nc(N)n(C(C)=O)n2)cc1,> 4 mM (inactive)
5,O=C(O)c1csc(-c2cccnc2)n1,> 4 mM (inactive)
6,NCCCCN=C(N)N,> 4 mM (inactive)
7,CC1(C)Cc2c(c(-c3ccco3)[nH]c(=O)c2C#N)CO1,> 4 mM (inactive)
8,CNCc1ccco1,> 4 mM (inactive)
9,COC(=O)c1c(OC)cc2c(c1C)Oc1c(Cl)c(OC(C)=O)c(Cl)c(C)c1C(=O)O2,> 4 mM (inactive)
10,CC(=O)Nc1nnc(-c2ccccc2)o1,> 4 mM (inactive)
11,NC[C@H]1O[C@H](O[C@H]2[C@H](O)[C@@H](O[C@H]3O[C@H](CO)[C@@H](O)[C@H](N)[C@H]3O)[C@H](N)C[C@@H]2N)[C@H](N)[C@@H](O)[C@@H]1O,> 4 mM (inactive)
12,Cc1ccccc1CSc1nncn1N,> 4 mM (inactive)
13,Nc1ccc2nccnc2c1,> 4 mM (inactive)
14,Cc1sc2nc3n(c(=O)c2c1C)CCCS3,> 4 mM (inactive)
15,COc1ccc(-c2coc3c(O)c(OC)ccc3c2=O)cc1,> 4 mM (inactive)
16,CN(c1ccc(C(=O)N2CCCCC2)cc1)S(C)(=O)=O,> 4 mM (inactive)
17,O=C(Nc1ccc(-c2nnco2)cc1)c1ccccc1,> 4 mM (inactive)
18,CC(C)(C#N)O[C@@H]1O[C@H](CO)[C@@H](O)[C@H](O)[C@H]1O,> 4 mM (inactive)
19,CCC(C)C(=O)c1c(O)c(C)c2oc3c(C)c(O)c(C(=O)C(C)CC)c(O)c3c2c1O (configuration not stated),> 4 mM (inactive)
20,CN1CCC(N2CCN(C)CC2)CC1,> 4 mM (inactive)
21,CC1CN(Cc2ccccn2)CCC1=O (configuration not stated),> 4 mM (inactive)
22,CC(=O)c1ccc(N2C(=O)C(C(C)C)NC2=S)cc1 (configuration not stated),> 4 mM (inactive)
23,COC(=O)[C@]1(C)CC[C@]2(C)CC[C@]3(C)C4=CCc5c(cc(O)c(O)c5C)[C@]4(C)CC[C@@]3(C)C2C1 (some centres not stated),> 4 mM (inactive)
24,COc1ccc(-c2cc(=O)c3ccccc3o2)cc1,> 4 mM (inactive)

row,Structure (SMILES),Kd
1,COc1ccc2c(c1OC)C(=O)OC2[C@H]1c2c(cc3c(c2OC)OCO3)CCN1C (some centres not stated),> 4 mM (inactive)
2,CSc1nnc2[nH]c(=O)cc(N)n12,> 4 mM (inactive)
3,CCOC(=O)C1C(C=C(C)C)C1(C)C (configuration not stated),> 4 mM (inactive)
4,COc1cc([C@@H]2c3cc4c(cc3[C@H](O)[C@H]3COC(=O)[C@H]23)OCO4)cc(OC)c1OC,> 4 mM (inactive)
5,Cc1noc(C)c1C(=O)N1CCC2(CC1)OCCO2,> 4 mM (inactive)
6,CCn1c(-c2c[nH]c3ccccc23)n[nH]c1=S,> 4 mM (inactive)
7,CC1=CC(=O)NC2C=CC=CC12 (configuration not stated),> 4 mM (inactive)
8,NC1=NC(=O)/C(=C\c2ccccc2)S1,> 4 mM (inactive)
9,O=C(NCC1CCNCC1)c1ccncc1,> 4 mM (inactive)
10,COc1ccc2c(c1)OC/C(=C\c1ccc(OC)c(O)c1)C2=O,> 4 mM (inactive)
11,CC(C)NS(=O)(=O)c1ccc(N)cc1,> 4 mM (inactive)
12,O=C(CSc1cccc2cccnc12)N1CCCC1,> 4 mM (inactive)
13,COc1ccc(NC(=O)/C=N/O)cc1,> 4 mM (inactive)
14,CC(NC(=O)c1ccco1)C1CCCO1 (configuration not stated),> 4 mM (inactive)
15,[O-][n+]1cc(O)c(CN2CCOCC2)c2ccccc21,> 4 mM (inactive)
16,OC1CSc2ncnn2C1 (configuration not stated),> 4 mM (inactive)
17,O=C(CNC(=O)c1cccs1)NC1=NCCS1,> 4 mM (inactive)
18,COc1cc(C/C=C/c2ccccc2)c(OC)cc1O,> 4 mM (inactive)
19,Nc1nc2n(c1C(=O)c1ccccc1)CCC2,> 4 mM (inactive)
20,CS(=O)(=O)Cc1ccccc1,> 4 mM (inactive)
21,Cc1occc1C(=O)NCc1ccccn1,> 4 mM (inactive)
22,Nc1ccc(-n2cncn2)cc1,> 4 mM (inactive)
23,O=C1CSC(=Nc2ccccc2[N+](=O)[O-])N1,> 4 mM (inactive)
24,COC(=O)c1[nH]c2ccccc2c1C(=O)OC,> 4 mM (inactive)

row,Structure (SMILES),Kd
1,COC(=O)C1CSCC1=O (configuration not stated),> 4 mM (inactive)
2,Cc1cc(C)c(-c2cc(C(F)(F)F)no2)c(=O)[nH]1,> 4 mM (inactive)
3,CSc1nc(C)cc(-n2ccc(=O)[nH]c2=O)n1,> 4 mM (inactive)
4,CCOc1ccc(C(=O)c2ccc(OC)c(O)c2O)cc1,> 4 mM (inactive)
5,CCn1cnc2cc(NCc3ccncc3)ccc21,> 4 mM (inactive)
6,OCC1CCN(Cc2ccccc2)CC1,> 4 mM (inactive)
7,Cn1ncc(C(=O)O)c1-c1ccccc1,> 4 mM (inactive)
8,COC(=O)C[C@@H]1C2(C)C(=O)[C@@H](CC3=C4CC(O)O[C@@H](c5ccoc5)[C@]4(C)CCC32)[C@H](O)C1(C)C (some centres not stated),> 4 mM (inactive)
9,NC1=C([N+](=O)[O-])C(=O)c2ccccc21,> 4 mM (inactive)
10,NC1=C(c2ccccc2)C(=O)c2ccccc21,> 4 mM (inactive)
11,Cc1nc2ccc(F)cc2cc1C(=O)NCc1ccco1,> 4 mM (inactive)
12,O=C1c2ccncc2C(=O)N1CO,> 4 mM (inactive)
13,Nc1ccc(CN2CCS(=O)(=O)CC2)cc1,> 4 mM (inactive)
14,C/C=C(/C)C(=O)O[C@@H]1Cc2c(ccc3ccc(=O)oc23)OC1(C)C,> 4 mM (inactive)
15,O=c1cnnc(N2CCCCC2)[nH]1,> 4 mM (inactive)
16,Cc1cc(NC(=O)c2ccccc2C(=O)O)no1,> 4 mM (inactive)
17,Nc1ccnc(C(=O)O)c1,> 4 mM (inactive)
18,COc1cc(OC)cc(-c2nc(N)n[nH]2)c1,> 4 mM (inactive)
19,CC(C)CCCC(C)[C@H]1CCC2C3CC[C@@H]4C[C@H](O)CC[C@]4(C)C3CC[C@@]21C (some centres not stated),> 4 mM (inactive)
20,O=c1ccn(Cc2ccccc2)c(=O)[nH]1,> 4 mM (inactive)
21,Nc1ncnc(NC2CCS(=O)(=O)C2)c1[N+](=O)[O-] (configuration not stated),> 4 mM (inactive)
